Assay results: ChEMBL document CHEMBL1149377, “8-(1-Naphthalen-2-yl-vinyl)-6,7,10-trioxaspiro (4.5) decane, a new 1,2,4-trioxane effective against rodent and simian malaria” (2006)

Key:
Plasmodium yoelii [1] = test: Antimalarial activity in Plasmodium yoelii MDR infected Swiss mice (Mus musculus) at 96 mg/kg Intramuscular dose; format: functional; settings: im
Plasmodium yoelii [2] = test: Antimalarial activity against Plasmodium yoelii in Swiss mice (Mus musculus) model at 96 mg/kg peroral dose; format: functional; settings: route oral
Plasmodium yoelii [3] = test: Antimalarial activity against Plasmodium yoelii infected Swiss mice (Mus musculus) at 192 mg/kg peroral dose; format: functional; settings: route oral
Plasmodium cynomolgi = test: Elimination of parasitaemia in Plasmodium cynomolgi infected Rhesus monkeys (Macaca mulatta) at 20 mg/kg intramuscular or 40 mg/kg peroral dose; format: functional, organism-based
Plasmodium yoelii [4] = test: Antimalarial activity against Plasmodium yoelii infected Swiss mice (Mus musculus) at 72 mg/kg Intramuscular dose; format: functional; settings: im
Plasmodium yoelii [5] = test: Antimalarial activity against Plasmodium yoelii infected Swiss mice (Mus musculus) at 48 mg/kg Intramuscular dose; format: functional; settings: im
Plasmodium yoelii [6] = test: Antimalarial activity against Plasmodium yoelii infected Swiss mice (Mus musculus) at 48 mg/kg peroral dose; format: functional; settings: route oral
Plasmodium yoelii [7] = test: Antimalarial activity against Plasmodium yoelii infected Swiss mice (Mus musculus) at 24 mg/kg intramuscular dose; format: functional; settings: im

| SMILES | inhibition in vivo at 96 mg/kg (Plasmodium yoelii [1]) [%] | inhibition in vivo at 96 mg/kg (Plasmodium yoelii [2]) [%] | also measured |
| --- | --- | --- | --- |
| C=C(c1ccc(F)cc1)C1COC2(CCCCC2)OO1 (configuration not stated) | 89 | 14 |  |
| C=C(c1ccccc1)C1COC2(CCCC2)OO1 (configuration not stated) | 100 | 15 |  |
| C=C(c1ccc2ccccc2c1)C1COC2(CCCC2)OO1 (configuration not stated) | 100 | 90 | inhibition in vivo at 192 mg/kg (Plasmodium yoelii [3]): 100%; clearance (Plasmodium cynomolgi): 100%; inhibition in vivo at 72 mg/kg (Plasmodium yoelii [4]): 96%; inhibition in vivo at 48 mg/kg (Plasmodium yoelii [5]): 97% |
| C=C(c1ccc2c(ccc3ccccc32)c1)C1COC2(CCCCC2)OO1 (configuration not stated) | 81 | 100 |  |
| C=C(c1ccc2c(c1)Cc1ccccc1-2)C1COC2(CCCC2)OO1 (configuration not stated) | 100 | 100 |  |
| C=C(c1ccc2ccc3ccccc3c2c1)C1COC2(CCCC2)OO1 (configuration not stated) | 99 | 64 |  |
| C=C(c1cccc2ccccc12)C1COC2(CCCCC2)OO1 (configuration not stated) | 87 | 83 |  |
| C=C(c1ccc2ccc3ccccc3c2c1)C1COC2(CCCCC2)OO1 (configuration not stated) | 13 | 99 |  |
| C=C(c1ccc2c(ccc3ccccc32)c1)C1COC2(CCCC2)OO1 (configuration not stated) | 100 | 100 |  |
| C=C(c1cccc2ccccc12)C1COC2(CCCC2)OO1 (configuration not stated) | 91 | 78 |  |
| CCN(CC)CCCC(C)Nc1ccnc2cc(Cl)ccc12 (configuration not stated) [CHLOROQUINE] |  | 100 | inhibition in vivo at 48 mg/kg (Plasmodium yoelii [6]): 100% |
| C=C(c1ccc2ccccc2c1)C1COC2(CCCCC2)OO1 (configuration not stated) | 97 |  | inhibition in vivo at 48 mg/kg (Plasmodium yoelii [5]): 60% |
| C[C@@H]1CC[C@H]2[C@@H](C)C(=O)O[C@@H]3O[C@@]4(C)CC[C@@H]1[C@]32OO4 [ARTEMISININ] |  |  | inhibition in vivo at 24 mg/kg (Plasmodium yoelii [7]): 100%; inhibition in vivo at 48 mg/kg (Plasmodium yoelii [5]): 100% |
| C=C(c1ccc2c(c1)Cc1ccccc1-2)C1COC2(CCCCC2)OO1 (configuration not stated) | 83 | 100 |  |
